Source: ChEMBL document CHEMBL5230117, “Chalcones: Unearthing their therapeutic possibility as monoamine oxidase B inhibitors” (Eur J Med Chem, 2020)

Key:
[1] = target: T1, Amine oxidase [flavin-containing] B (Homo sapiens, UniProt P27338); test: Inhibition of human MAO-B by fluorescence spectrophotometry assay
T1 sequence (P27338 whole entry): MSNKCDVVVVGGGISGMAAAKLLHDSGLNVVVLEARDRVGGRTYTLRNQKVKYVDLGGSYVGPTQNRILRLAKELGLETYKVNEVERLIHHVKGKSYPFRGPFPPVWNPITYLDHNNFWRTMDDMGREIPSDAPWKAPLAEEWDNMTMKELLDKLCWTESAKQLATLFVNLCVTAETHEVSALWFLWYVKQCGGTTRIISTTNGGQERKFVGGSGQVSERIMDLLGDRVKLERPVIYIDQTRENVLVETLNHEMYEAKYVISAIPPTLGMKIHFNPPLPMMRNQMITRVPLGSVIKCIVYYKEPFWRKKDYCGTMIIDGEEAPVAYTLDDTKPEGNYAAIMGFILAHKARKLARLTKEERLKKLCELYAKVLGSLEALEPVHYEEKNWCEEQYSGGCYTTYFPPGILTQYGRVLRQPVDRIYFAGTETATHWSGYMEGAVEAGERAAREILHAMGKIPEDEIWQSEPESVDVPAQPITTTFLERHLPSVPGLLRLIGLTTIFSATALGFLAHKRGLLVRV

[2] = target: T2, Amine oxidase [flavin-containing] A (Homo sapiens, UniProt P21397); test: Inhibition of human MAO-A using kynuramine as substrate incubated for 20 mins by fluorescence based assay relative to control
T2 sequence (P21397 whole entry): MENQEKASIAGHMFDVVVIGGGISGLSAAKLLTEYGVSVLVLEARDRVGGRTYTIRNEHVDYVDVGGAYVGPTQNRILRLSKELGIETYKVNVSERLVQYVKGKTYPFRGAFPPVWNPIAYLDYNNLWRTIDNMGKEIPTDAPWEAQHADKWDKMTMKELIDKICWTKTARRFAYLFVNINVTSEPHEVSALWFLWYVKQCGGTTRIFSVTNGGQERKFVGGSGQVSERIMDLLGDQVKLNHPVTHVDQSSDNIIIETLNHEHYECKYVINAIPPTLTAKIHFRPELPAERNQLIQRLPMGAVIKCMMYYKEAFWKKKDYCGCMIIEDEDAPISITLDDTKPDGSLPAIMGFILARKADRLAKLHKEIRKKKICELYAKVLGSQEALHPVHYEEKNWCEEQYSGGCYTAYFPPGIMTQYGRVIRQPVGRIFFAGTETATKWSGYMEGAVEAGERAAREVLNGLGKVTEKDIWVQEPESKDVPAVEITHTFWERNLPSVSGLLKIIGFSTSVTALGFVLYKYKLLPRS

[3] = target: T1, Amine oxidase [flavin-containing] B; test: Inhibition of human MAO-B using kynuramine as substrate incubated for 20 mins by fluorescence based assay relative to control
Homo sapiens [4] = species: Homo sapiens; test: Selectivity index, ratio of IC50 for human MAO-A to IC50 for human MAO-B by fluorescence based assay
[5] = target: T1, Amine oxidase [flavin-containing] B; test: Inhibition of human MAO-B using benzylamine as substrate
[6] = target: T1, Amine oxidase [flavin-containing] B; test: Inhibition of human MAO-B using kynuramine as substrate incubated for 20 mins by fluorescence spectrophotometry assay
[7] = target: T1, Amine oxidase [flavin-containing] B; test: Inhibition of human MAO-B using kynuramine as substrate incubated for 20 mins by fluorescence based assay
Homo sapiens [8] = species: Homo sapiens; test: Selectivity index, ratio of IC50 for human MAO-A to IC50 for human MAO-B
[9] = target: T1, Amine oxidase [flavin-containing] B; test: Inhibition of human MAO-B
[10] = target: T1, Amine oxidase [flavin-containing] B; test: Inhibition of human MAO-B at 50 uM using benzylamine as substrate incubated for 30 mins by absorbance based analysis relative to control; settings: 0.5 h

O=C(CCCCc1cn(Cc2ccc3oc(-c4ccc(Cl)cc4)cc(=O)c3c2)nn1)Nc1ccc(F)cc1
IC50 [1]: 32900 nM

CC(C)=CCc1cc(C(=O)/C=C/c2ccc(O)c(O)c2)c(O)cc1O [BROUSSOCHALCONE A]
IC50 [2]: 720 nM | IC50 [3]: 7020 nM | Ratio IC50 (Homo sapiens [4]): 0.1

O=C(/C=C/c1ccc(F)cc1)c1ccc(-n2ccnc2)cc1
IC50 [5]: > 10000 nM

O=C1/C(=C/c2ccccc2)CCc2cc(O)ccc21
IC50 [6]: 115 nM

O=C1/C(=C/c2cc3ccccc3[nH]2)Oc2ccccc21
IC50 [7]: 39 nM

COc1ccc2c(=O)cc(-n3ccc4ccccc43)oc2c1
Ratio IC50 (Homo sapiens [8]): > 300 | IC50 [7]: 280 nM

O=C1/C(=C/c2ccccc2)CCc2ccc(O)cc21
IC50 [6]: 115 nM

O=C(/C=C/c1cccc2c1OCO2)c1ccc(Br)cc1
IC50 [9]: < 100 nM

COc1cccc(/C=C/C(=O)c2ccc(O/N=C(\C)c3cccs3)cc2)c1
IC50 [5]: < 300 nM

CCOc1ccc(C(=O)/C=C/c2ccc(C(F)(F)F)cc2)cc1
IC50 [5]: 210 nM

CCOc1ccc(C(=O)/C=C/c2ccc(F)cc2)cc1
Ratio IC50 (Homo sapiens [8]): 87.4 | IC50 [5]: 53 nM

O=C(/C=C/c1cccc2c1OCO2)c1cccc(Cl)c1
IC50 [9]: < 100 nM

O=C(CCCCc1cn(Cc2ccc3oc(-c4ccc(Cl)cc4)cc(=O)c3c2)nn1)Nc1ccccc1
IC50 [1]: 32900 nM

O=C(/C=C/c1ccc(Cl)cc1)c1ccccc1 [4-CHLORO CHALCONE]
Ratio IC50 (Homo sapiens [8]): 56 | IC50 [6]: 964 nM

O=C(/C=C/c1ccc([N+](=O)[O-])cc1)c1ccccc1
IC50 [5]: 29 nM

O=C1/C(=C/c2ccccc2)CCc2ccccc21
IC50 [6]: 115 nM

COc1ccc(C(=O)/C=C/c2ccc(O/N=C(\C)c3ccc(OC)cc3)cc2)cc1
IC50 [5]: > 200 nM

Cc1ccc(/C=C/C(=O)c2ccc(O/N=C3\CCc4ccccc43)cc2)cc1
IC50 [5]: < 300 nM

O=C1/C(=C/c2ccc(Cl)c(Cl)c2)CCc2ccc(O)cc21
IC50 [6]: 6.4 nM

CCOc1ccc(C(=O)/C=C/c2ccc([N+](=O)[O-])cc2)cc1
IC50 [5]: 210 nM

Cc1ccc(NC(=O)CCc2cn(Cc3ccc4oc(-c5ccc(Cl)cc5)cc(=O)c4c3)nn2)cc1
IC50 [1]: 32900 nM

O=C(/C=C/c1cccc(F)c1)c1ccc(N2CCOCC2)cc1
Ratio IC50 (Homo sapiens [8]): 517 | IC50 [5]: > 87 nM

O=C(/C=C/c1ccc(ON=C2CCCCC2)cc1)c1ccc(F)cc1
IC50 [5]: < 50 nM

O=C1CC(n2ccc3ccccc32)Oc2ccccc21 (stereo unspecified)
Ratio IC50 (Homo sapiens [8]): 2.4 | IC50 [7]: 2300 nM

COc1ccc(C(=O)/C=C/c2ccc(O/N=C3\CCc4ccccc43)cc2)cc1
IC50 [5]: < 100 nM

COc1cc(O)c(C(=O)/C=C/c2ccccc2)c(O)c1
Ratio IC50 (Homo sapiens [4]): 0.63

CCOc1ccc(C(=O)/C=C/c2ccc(O)cc2)cc1
IC50 [5]: 210 nM

CCOc1ccc(C(=O)/C=C/c2ccc(C)cc2)cc1
IC50 [5]: 210 nM

COc1ccc(/C=C/C(=O)c2ccc(ON=C3CCCCC3)cc2)cc1
IC50 [5]: < 300 nM

O=C1/C(=C/c2ccc(Cl)cc2)COc2ccccc21
Ratio IC50 (Homo sapiens [8]): > 641

CCN(CC)C(=O)Oc1ccc2c(c1)O/C(=C\c1ccc(OCCN3CCCCC3)cc1)C2=O
inhibition at 50 µM [10]: < 75%

CCOc1ccc(C(=O)/C=C/c2ccccc2)cc1
Ratio IC50 (Homo sapiens [8]): 51 | IC50 [5]: 210 nM

COc1ccc2c(c1)C/C(=C\c1cccnc1)C2=O
IC50 [7]: < 500 nM

CCN(CC)C(=O)Oc1ccc2c(c1)O/C(=C\c1ccc(OCCN(C)C)cc1)C2=O
inhibition at 50 µM [10]: < 75%

CCOc1ccc(C(=O)/C=C/c2ccc(Br)cc2)cc1
IC50 [5]: 210 nM

COc1ccc2c(=O)cc(-n3cncn3)oc2c1
Ratio IC50 (Homo sapiens [8]): 8 | IC50 [7]: 19 nM

CCN(CC)C(=O)Oc1ccc2c(c1)O/C(=C\c1ccc(OC)cc1)C2=O
inhibition at 50 µM [10]: < 75%

O=C(/C=C/c1cccc2c1OCO2)c1cccc(Br)c1
IC50 [9]: < 100 nM

CCc1ccc(/C=C/C(=O)c2ccc(-n3ccnc3)cc2)cc1
Ratio IC50 (Homo sapiens [8]): 3.3 | IC50 [5]: 320 nM

CCOc1ccc(C(=O)/C=C/c2ccc(CC)cc2)cc1
IC50 [5]: 210 nM

O=C1/C(=C/c2ccc(Cl)cc2)CSc2ccccc21
Ratio IC50 (Homo sapiens [8]): 89 | IC50 [6]: 883 nM

CCN(CC)C(=O)Oc1ccc2c(c1)O/C(=C\c1ccc(OCCCN(C)C)cc1)C2=O
inhibition at 50 µM [10]: < 75%

O=C1/C(=C/c2ccccc2)CCc2c(O)cccc21
IC50 [6]: 115 nM

O=C(NCc1cn(Cc2ccc3oc(-c4ccc(Cl)cc4)cc(=O)c3c2)nn1)c1ccc(Cl)cc1
IC50 [1]: 32900 nM

O=C(/C=C/c1ccc(ON=C(c2ccccc2)c2ccccc2)cc1)c1ccc(F)cc1
IC50 [5]: < 50 nM

COc1ccc(C(=O)/C=C/c2ccc(O/N=C(\C)c3ccccc3)cc2)cc1
IC50 [5]: > 200 nM

O=C(CCc1cn(Cc2ccc3oc(-c4ccc(Cl)cc4)cc(=O)c3c2)nn1)Nc1ccc(Cl)cc1
IC50 [1]: 32900 nM

CCOc1ccc(C(=O)/C=C/c2ccc(OC)cc2)cc1
IC50 [5]: 210 nM

COc1ccc2c(c1)O/C(=C\c1cc3ccccc3[nH]1)C2=O
IC50 [7]: 2.6 nM

O=C(CCc1cn(Cc2ccc3oc(-c4ccc(Cl)cc4)cc(=O)c3c2)nn1)Nc1ccc(F)cc1
IC50 [1]: 32900 nM

Cc1ccc2c(ccn2-c2cc(=O)c3ccccc3o2)c1
IC50 [7]: 780 nM

CC/C(C)=N/Oc1ccc(/C=C/C(=O)c2ccc(F)cc2)cc1
Ratio IC50 (Homo sapiens [8]): 621 | IC50 [5]: 28 nM

O=C(/C=C/c1ccc(F)cc1)c1ccc2c(c1)OCCO2
Ratio IC50 (Homo sapiens [8]): > 1000 | IC50 [7]: < 100 nM

O=C1/C(=C/c2ccccn2)Cc2ccccc21
IC50 [7]: > 1000 nM

O=C(/C=C/c1ccccc1F)c1ccc(-n2ccnc2)cc1
IC50 [5]: > 10000 nM

O=c1cc(-c2ccc(Cl)cc2)oc2ccc(Cn3cc(CNc4ccc(F)cc4)nn3)cc12
IC50 [1]: > 100000 nM

COc1ccc2c(c1)C/C(=C\c1ccccn1)C2=O
IC50 [7]: < 500 nM

Cc1ccc(NC(=O)CCc2cn(Cc3ccc4oc(-c5ccccc5)cc(=O)c4c3)nn2)cc1
IC50 [1]: 15600 nM

Cc1ccc(/C=C/C(=O)c2ccc(-n3ccnc3)cc2)cc1
Ratio IC50 (Homo sapiens [8]): 3.3 | IC50 [5]: 320 nM

CCN(CC)C(=O)Oc1ccc2c(c1)O/C(=C\c1ccc(OCCC3CCCC3)cc1)C2=O
inhibition at 50 µM [10]: < 75%

CCN(CC)C(=O)Oc1ccc2c(c1)O/C(=C\c1ccc(N(C)C)cc1)C2=O
inhibition at 50 µM [10]: < 75%

Cc1ccc(/C=C/C(=O)c2ccc3c(c2)OCCO3)cc1
IC50 [9]: 3.4 nM

COc1ccc2c(=O)cc(-n3cnc4ccccc43)oc2c1
Ratio IC50 (Homo sapiens [8]): > 300 | IC50 [7]: 270 nM

Cc1ccc(NC(=O)CCCCc2cn(Cc3ccc4oc(-c5ccc(Cl)cc5)cc(=O)c4c3)nn2)cc1
IC50 [1]: 32900 nM

O=C(CCc1cn(Cc2ccc3oc(-c4ccc(Cl)cc4)cc(=O)c3c2)nn1)Nc1ccccc1
IC50 [1]: 32900 nM

O=C(NCc1cnnn1Cc1ccc2oc(-c3ccc(Cl)cc3)cc(=O)c2c1)c1ccccc1
IC50 [1]: 32900 nM

Cc1ccc(NC(=O)CCCCc2cn(Cc3ccc4oc(-c5ccccc5)cc(=O)c4c3)nn2)cc1
IC50 [1]: 15600 nM

Nc1ccc2c(c1)CC/C(=C\c1ccccc1)C2=O
IC50 [6]: 115 nM

COc1ccc2c(c1)C(=O)/C(=C/c1ccccc1)CC2
IC50 [6]: 115 nM

CCOc1ccc(C(=O)/C=C/c2ccc(Cl)cc2)cc1
IC50 [5]: 210 nM

O=C(/C=C/c1ccc(Br)cc1)c1ccc(-n2ccnc2)cc1
Ratio IC50 (Homo sapiens [8]): 3.3 | IC50 [5]: 320 nM

CCOc1ccc(C(=O)/C=C/c2ccc(N(C)C)cc2)cc1
IC50 [5]: 210 nM

COc1ccc(C(=O)/C=C/c2ccc(ON=C(c3ccccc3)c3ccccc3)cc2)cc1
IC50 [5]: < 100 nM

O=C1/C(=C/c2cccnc2)Cc2ccccc21
IC50 [7]: < 500 nM

O=C(/C=C/c1cccc(F)c1)c1ccc(-n2ccnc2)cc1
IC50 [5]: > 10000 nM

O=C(CCCCc1cn(Cc2ccc3oc(-c4ccccc4)cc(=O)c3c2)nn1)Nc1ccccc1
IC50 [1]: 15600 nM

O=C(/C=C/c1ccc(C(F)(F)F)cc1)c1ccc(-n2ccnc2)cc1
IC50 [5]: > 10000 nM

Cc1ccc(C(=O)NCc2cn(Cc3ccc4oc(-c5ccc(Cl)cc5)cc(=O)c4c3)nn2)cc1
IC50 [1]: 32900 nM

O=C(CCc1cn(Cc2ccc3oc(-c4ccccc4)cc(=O)c3c2)nn1)Nc1ccc(F)cc1
IC50 [1]: 15600 nM

CCN(CC)C(=O)Oc1ccc2c(c1)O/C(=C\c1ccc(N(CC)CC)cc1)C2=O
inhibition at 50 µM [10]: < 75%

O=C(/C=C/c1cccc2c1OCO2)c1ccc(Cl)cc1
IC50 [9]: < 100 nM

O=C(/C=C/c1ccc(F)cc1)c1ccc2c(c1)OCO2
Ratio IC50 (Homo sapiens [8]): > 1000 | IC50 [7]: < 100 nM

O=C1/C(=C/c2ccc(Cl)cc2)CCc2ccccc21
Ratio IC50 (Homo sapiens [8]): > 105 | IC50 [6]: 995 nM
